Laboratory results as given in patent US20090042770A1, “Branched Chain Amino Acid Chelate” (priority 2007, published 2009).

How the values were obtained:
[1] = Incorporation of leucine products into beverages / aqueous systems (dispersibility, separation, turbidity); format: physicochemical; conditions: for ease of dispersion when incorporated into beverages: beverages / aqueous systems
[2] = pre-hydrolyzed BSA perfused into jejunum of human subjects (Reicht et al. 1997); cited from earlier work

Compound | appearance in aqueous solution (separation, turbidity) [1] | ease of dispersion when incorporated into beverages [1] | rate of absorption [2] [%]
calcium leucinate [chelated leucine product] | did not separate or increase turbidity | much more easily dispersed | –
N[C@@H](CSSC[C@H](N)C(=O)O)C(=O)O [cystine] | – | – | 3
CC(C)C[C@H](N)C(=O)O [free leucine, (S)-2-amino-4-methylpentanoic acid, reference compound] | separation phenomenon | difficult to disperse | –
